Experimental data: US10259799B2, “Hydroxyl pyranone compound, method for producing same, and cosmetics composition comprising compound” (AMOREPACIFIC CORPORATION, priority 2015, dated 2019)

Test system: human adipose tissue derived mesenchymal stem cells (hAT-MSCs)
Test: Adipocyte differentiation promoting effect: adiponectin in culture medium by ELISA
Assay type: cell-based
Conditions: for Adiponectin (pg/ml, Avg ± S.D.): medium collected on 14th day of differentiation; for expression level of adiponectin (in words): hAT-MSCs with IDX, 14th day, comment on Table 1
Procedure: In order to examine the adipocyte differentiation promoting effect of the compounds prepared in the Example, the following test was carried out.
Adiponectin is a typical protein hormone secreted from adipocytes. It has been reported that as adipocytes are differentiated, the expression of adiponectin is increased. Therefore, the adipocyte differentiation promoting effect was confirmed by measuring the amount of adiponectin expressed in the cell culture medium when treated with the novel compound of the present invention, which is an indicator of adipocyte differentiation promoting.
The adipocyte differentiation was performed by culturing human adipose tissue derived mesenchymal stem cells (hAT-MSCs) from Lonza Inc. (Walkersville, Md., USA) according to Lonza's guidelines. The adipocyte differentiation was carried out using the method recommended by Lonza Inc., except that the adipocyte differentiation of adipose-derived mesenchymal stem cells is induced by using troglitazone (TRO) instead of indomethacin. Specifically, the mesenchymal stem cells were differentiated into adipocytes by adding the medium for adipocyte differentiation (hereinafter referred to as IDX), which was prepared by mixing […] of insulin, […] of Dexamethasone (DEXA), 0.5 mM of isobutylmethylxanthine (IBMX) and […] of TRO, to the culture medium of mesenchymal stem cells, and then culturing it.
In order to determine the expression level of adiponectin, after the medium for adipocyte differentiation was collected on the 14th day of differentiation, the amount of adiponectin was quantified using the Adiponectin ELISA Kit (R & D systems, Cat. No. DY1065) (each data value was corrected by the control group). The specific measurement method using Adiponectin ELISA Kit was as follows.
First, the capture antibody was reacted in a 96-well plate, washed with washing buffer solution, and then the material shown in Table 1 below was added and reacted at room temperature for 2 hours. Thereafter, while washing three times every time when going through each step, the detection antibody, the HRP enzyme, the substrate solution, and the stop solution were added in order and reacted for the time indicated in the protocol. After the final reaction, the absorbance was measured at a wavelength of 450 nm using a spectrophotometer.

Structure (SMILES)	Adiponectin (pg/ml, Avg ± S.D.) [pg/mL]	expression level of adiponectin (in words)
O=C(/C=C/c1ccc2c(c1)OCO2)OCc1cc(=O)c(O)co1 [Seletinoid G]	1505 ± 109	
O=c1cc(CO)occ1O [Kojic acid]		not increased
CC1=C(/C=C/C(=O)OCc2cc(=O)c(O)co2)C(C)(C)CCC1 [compound of example, 3-(2,6,6-trimethyl-cyclohex-1-enyl)-propenoic acid 5-hydroxy-4-oxo-4H-pyran-2-ylmethyl ester]	1804 ± 110	increases almost similarly to that with Glibenclamide
